Experimental data published in patent US5349127A, “Expression of herbicide metabolizing cytochromes P450” (priority 1992, dated 1994).

How the values were obtained:
[1] = tested on: Tomato seedlings (Lycopersicon esculentum cv. Pixie); assay: Tomato transplants in herbicide-treated soil after bacterial pretreatments (Example 18); type: in vivo; details: for Shoot Fresh Weight (mean of five plants): 22 days; for Shoot fresh weight in treatment C versus the other treatments: 32, 64 and 125 g ai/ha of 10001 or 16 and 32 g ai/ha of 10010
Method: One liter cultures of S. griseolus ATCC 11796, S. lividans pCAO200, S. lividans pCAO200-#9-SU1-FeS-B or S. lividans pCAO200-#12-SU1 were grown in YEME medium (sporulation broth for the S. griseolus culture) at 30° C. until the cultures were in late log phase of growth and the absorbance of each culture in a spectrophotometer at a wavelength of 600 nm was between 1.0 and 1.3. Tomato seedlings (Lycopersicon esculentum cv. "Pixie") were seeded directly into soiless media, Oasis Wedges® (Smithers-Oasis, Kent, Ohio), fertilized with 500 ppm Peter's® fertilizer (20:19:18); and 300 ppm of iron was added weekly. As the tomato plants develop, roots ramify through the Oasis Wedges®. The tomato plants were transplanted to pots when they were 4 inches tall as follows.
Five inch standard round pots (without holes) were filled with Sassafras sandy loam (ph 6.7, 0.8% OM) and a single Oasis cube and then treated preemergence with either Classic® (10001) 25 DF (16, 32, 64, 125 and 250 grams active ingredient/hectare [g ai/ha]) or Oust® (10010) 75 DF at rates of 4, 8, 16, 32 and 64 g ai/ha), both herbicides available from E. I. du Pont de Nemours and Company, Wilmington, Del. The oasis cube was then removed and replaced by a transplant tomato dipped in either the cultures described above of S. griseolus ATCC 11796 (treatment A), S. lividans pCAO200 (treatment B), S. lividans pCAO200-#9-SU1-FeS-B (treatment C), S. lividans pCAO200-#12-SU1 (treatment D) or into water (treatment E). Five transplants were tested for each treatment at each dosage rate. The pots were placed on a greenhouse bench for 22 days and watered twice daily, after which shoot fresh weights of treatments were determined. Roots of these treatments and controls were examined too. Plants, soil and pots treated with bacterial cultures were double bagged and disposed by incineration.

S. griseolus PH3809 = assay: Metabolism of 10001 by strains transformed with pCS325 (Example 15); type: in vitro ADME, Streptomyces griseolus; details: substrate 10001
Method: S. griseolus PH2003, S. griseus PH4001, S. ambofaciens PH4002, and S. lividans JI1326 were transformed with the plasmid pPAT108. The transformed S. griseolus strain, PH3826, was cultured for 24 hours in 150 mls of sporulation broth with 5 ug/ml thiostrepton. The transformed S. griseus strain, PH3832, and the transformed S. ambofaciens strain, PH3834, were cultured for 24 hours in 150 mls of trypticase soy broth with 5 ug/ml thiostrepton. The transformed S. lividans strain, PH3822, was similarly cultured in 150 mls of YEME broth with 5 ug/ml thiostrepton. Three hours before harvesting the cells, 50 mls of fresh medium of the same type with 5 ug/ml thiostrepton was added to each culture. The cells from each of the cultures were harvested by centrifugation, washed twice with 50 mMMOPS, pH7.2 and resuspended in five cell volumes of MOPS containing 0.2% glucose and 120 ug/ml of the sulfonylurea 10001. The cell suspensions were incubated at 30° C. with shaking and aliquots were removed at 0.5, 1, 2 and 4 hours. The supernatant of each aliquot was analyzed by HPLC and the concentration of the sulfonylurea compound 10001 and its metabolites 10002 and 10003 were determined.
S. griseolus PH2003, S. griseus PH4001, S. ambofaciens PH4002, and S. lividans JI1326 were transformed with the plasmid pCS325. Cells of the transformed strains of S. griseolus PH3809, S. griseus PH3817, S. ambofaciens PH3818, and S. lividans PH3816, were grown and treated as described in Example 14, and the concentrations of the sulfonylurea compound 10001 and its metabolites 10002 and 10003 were determined.

[2] = 16 g ai/ha, Pretreatment A (Streptomyces griseolus ATCC11796)
[3] = 16 g ai/ha, Pretreatment B (Streptomyces lividans pCAO200)
[4] = 16 g ai/ha, Pretreatment C (S. lividans pCAO200#9SU1-FeS-B)
[5] = 16 g ai/ha, Pretreatment D (S. lividans pCAO200#12SU1)
[6] = 16 g ai/ha, Pretreatment E (water)
[7] = 32 g ai/ha, Pretreatment A (Streptomyces griseolus ATCC11796)
[8] = 32 g ai/ha, Pretreatment B (Streptomyces lividans pCAO200)
[9] = 32 g ai/ha, Pretreatment C (S. lividans pCAO200#9SU1-FeS-B)
[10] = 32 g ai/ha, Pretreatment D (S. lividans pCAO200#12SU1)
[11] = 32 g ai/ha, Pretreatment E (water)
[12] = 64 g ai/ha, Pretreatment A (Streptomyces griseolus ATCC11796)
[13] = 64 g ai/ha, Pretreatment B (Streptomyces lividans pCAO200)
[14] = 64 g ai/ha, Pretreatment C (S. lividans pCAO200#9SU1-FeS-B)
[15] = 64 g ai/ha, Pretreatment D (S. lividans pCAO200#12SU1)
[16] = 64 g ai/ha, Pretreatment E (water)

| Structure (SMILES) | Shoot Fresh Weight (mean of five plants) [1, 2] | Shoot Fresh Weight (mean of five plants) [1, 3] | Shoot Fresh Weight (mean of five plants) [1, 4] | Shoot Fresh Weight (mean of five plants) [1, 5] | Shoot Fresh Weight (mean of five plants) [1, 6] | Shoot fresh weight in treatment C versus the other treatments [1] | Shoot Fresh Weight (mean of five plants) [1, 7] | Shoot Fresh Weight (mean of five plants) [1, 8] | Shoot Fresh Weight (mean of five plants) [1, 9] | Shoot Fresh Weight (mean of five plants) [1, 10] | Shoot Fresh Weight (mean of five plants) [1, 11] | Shoot Fresh Weight (mean of five plants) [1, 12] | Shoot Fresh Weight (mean of five plants) [1, 13] | Shoot Fresh Weight (mean of five plants) [1, 14] | Shoot Fresh Weight (mean of five plants) [1, 15] | Shoot Fresh Weight (mean of five plants) [1, 16] | concentration in supernatant (S. griseolus PH3809; 0.5 h) | concentration in supernatant (S. griseolus PH3809; 1.0 h) | concentration in supernatant (S. griseolus PH3809; 2.0 h) | concentration in supernatant (S. griseolus PH3809; 4.0 h) | further results |
| --- | --- | --- | --- | --- | --- | --- | --- | --- | --- | --- | --- | --- | --- | --- | --- | --- | --- | --- | --- | --- | --- |
| COC(=O)c1ccccc1S(=O)(=O)NC(=O)Nc1nc(C)cc(C)n1 [compound 10010, N-[(4,6-dimethylpyrimidin-2-yl)aminocarbonyl]-2-methoxycarbonylbenzenesulfonamide] | 0.32 grams | 0.65 grams | 0.98 grams | 0.56 grams | 0.39 grams | 2-3 times greater | 0.33 grams | 0.42 grams | 1.01 grams | 0.62 grams | 0.28 grams | 0.30 grams | 0.39 grams | 0.46 grams | 0.29 grams | 0.34 grams |  |  |  |  | Shoot Fresh Weight (mean of five plants) ([1]; 4 g ai/ha, Pretreatment A (Streptomyces griseolus ATCC11796)): 1.16 grams; Shoot Fresh Weight (mean of five plants) ([1]; 4 g ai/ha, Pretreatment B (Streptomyces lividans pCAO200)): 0.73 grams; Shoot Fresh Weight (mean of five plants) ([1]; 4 g ai/ha, Pretreatment C (S. lividans pCAO200#9SU1-FeS-B)): 0.88 grams; Shoot Fresh Weight (mean of five plants) ([1]; 4 g ai/ha, Pretreatment D (S. lividans pCAO200#12SU1)): 0.88 grams; Shoot Fresh Weight (mean of five plants) ([1]; 4 g ai/ha, Pretreatment E (water)): 2.00 grams; Shoot Fresh Weight (mean of five plants) ([1]; 8 g ai/ha, Pretreatment A (Streptomyces griseolus ATCC11796)): 0.58 grams; Shoot Fresh Weight (mean of five plants) ([1]; 8 g ai/ha, Pretreatment B (Streptomyces lividans pCAO200)): 0.69 grams; Shoot Fresh Weight (mean of five plants) ([1]; 8 g ai/ha, Pretreatment C (S. lividans pCAO200#9SU1-FeS-B)): 1.02 grams; Shoot Fresh Weight (mean of five plants) ([1]; 8 g ai/ha, Pretreatment D (S. lividans pCAO200#12SU1)): 0.75 grams; Shoot Fresh Weight (mean of five plants) ([1]; 8 g ai/ha, Pretreatment E (water)): 0.65 grams |
| COc1cc(Cl)nc(NC(=O)NS(=O)(=O)c2ccccc2C(=O)O)n1 [compound 10003, N-[(4-chloro-6-methoxy-pyrimidin-2-yol)aminocarbonyl]-2-carboxybenzenesulfonamide] |  |  |  |  |  |  |  |  |  |  |  |  |  |  |  |  | 6 µM | 16 µM | 24 µM | 25 µM |  |
| CCOC(=O)c1ccccc1S(=O)(=O)NC(=O)Nc1nc(Cl)cc(OC)n1 [compound 10001, N-[(4-chloro-6-methoxy-pyrimidin-2-yl)aminocarbonyl]-2-ethoxycarbonylbenzenesulfonamide] | 0.88 grams | 0.67 grams | 1.63 grams | 0.62 grams | 1.67 grams | 2-3 times greater | 0.74 grams | 0.47 grams | 1.62 grams | 0.82 grams | 1.07 grams | 0.21 grams | 0.53 grams | 1.24 grams | 0.47 grams | 0.46 grams | 175 µM | 108 µM | 0 µM | 0 µM | Shoot Fresh Weight (mean of five plants) ([1]; 125 g ai/ha, Pretreatment A (Streptomyces griseolus ATCC11796)): 0.49 grams; Shoot Fresh Weight (mean of five plants) ([1]; 125 g ai/ha, Pretreatment B (Streptomyces lividans pCAO200)): 0.38 grams; Shoot Fresh Weight (mean of five plants) ([1]; 125 g ai/ha, Pretreatment C (S. lividans pCAO200#9SU1-FeS-B)): 1.01 grams; Shoot Fresh Weight (mean of five plants) ([1]; 125 g ai/ha, Pretreatment D (S. lividans pCAO200#12SU1)): 0.35 grams; Shoot Fresh Weight (mean of five plants) ([1]; 125 g ai/ha, Pretreatment E (water)): 0.23 grams; Shoot Fresh Weight (mean of five plants) ([1]; 250 g ai/ha, Pretreatment A (Streptomyces griseolus ATCC11796)): 0.44 grams; Shoot Fresh Weight (mean of five plants) ([1]; 250 g ai/ha, Pretreatment B (Streptomyces lividans pCAO200)): 0.25 grams; Shoot Fresh Weight (mean of five plants) ([1]; 250 g ai/ha, Pretreatment C (S. lividans pCAO200#9SU1-FeS-B)): 0.55 grams; Shoot Fresh Weight (mean of five plants) ([1]; 250 g ai/ha, Pretreatment D (S. lividans pCAO200#12SU1)): 0.26 grams; Shoot Fresh Weight (mean of five plants) ([1]; 250 g ai/ha, Pretreatment E (water)): 0.21 grams |
